For the assay, the system named is P388 leukemia ip, CD2F1 mice, survival T/C. Put plainly: NCI In Vivo Anticancer Drug Screen. Data for tumor model P388 Leukemia (intraperitoneal) in CD2F1 (CDF1) mice. As to conditions: endpoint: median survival time, higher = longer survival. The method in brief:
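Mice carrying the transplanted tumor received test compound or vehicle. Survival was recorded in each group, and the value is the treated-group measurement divided by that of the vehicle-treated control group.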

The mark [1] stands for this setting: dose: 12.5 mg/kg/injection, schedule: Q01DX005 (ip), vehicle: Klucel (hydroxypropylcellulose) (HPC).
Where [2] appears, read: dose: 25.0 mg/kg/injection, schedule: Q01DX005 (ip), vehicle: Klucel (hydroxypropylcellulose) (HPC).
Where [3] appears, read: dose: 50.0 mg/kg/injection, schedule: Q01DX009 (ip), vehicle: saline.
The mark [4] stands for this setting: dose: 100.0 mg/kg/injection, schedule: Q01DX009 (ip), vehicle: saline.
Where [5] appears, read: dose: 200.0 mg/kg/injection, schedule: Q01DX009 (ip), vehicle: saline.
[6] abbreviates: dose: 50.0 mg/kg/injection, schedule: Q01DX009 (ip), vehicle: Klucel (hydroxypropylcellulose) (HPC).
Where [7] appears, read: dose: 100.0 mg/kg/injection, schedule: Q01DX009 (ip), vehicle: Klucel (hydroxypropylcellulose) (HPC).
The mark [8] stands for this setting: dose: 100.0 mg/kg/injection, schedule: Q01DX001 (ip), vehicle: saline with Tween-80.
The mark [9] stands for this setting: dose: 200.0 mg/kg/injection, schedule: Q01DX001 (ip), vehicle: saline with Tween-80.
[10] abbreviates: dose: 60.0 mg/kg/injection, schedule: Q01DX005 (ip), vehicle: saline with Tween-80.
Setting [11] is: dose: 60.0 mg/kg/injection, schedule: Q01DX005 (ip), vehicle: Klucel (hydroxypropylcellulose) (HPC).
Setting [12] is: dose: 240.0 mg/kg/injection, schedule: Q01DX005 (ip), vehicle: Klucel (hydroxypropylcellulose) (HPC).
The mark [13] stands for this setting: dose: 120.0 mg/kg/injection, schedule: Q01DX005 (ip), vehicle: saline with Tween-80.
Setting [14] is: dose: 240.0 mg/kg/injection, schedule: Q01DX005 (ip), vehicle: saline with Tween-80.

Values joined by “and” are separate entries in the source; they are usually repeats but may differ in a detail not shown here. Equal entries are not always repeated. Toxic doses and inconclusive results are not listed.

Regarding `O=C(NC(C(=O)NC(C(=O)O)C1CC(Cl)=NO1)C1CC(Cl)=NO1)OCC1c2ccccc2-c2ccccc21` (configuration not stated), the T/C reads like this: (dose: 5.0 mg/kg/injection, schedule: Q04DX003 (ip), vehicle: other) 120 % of control; (dose: 12.5 mg/kg/injection, schedule: Q04DX003 (ip), vehicle: other) 150 % of control; (dose: 25.0 mg/kg/injection, schedule: Q04DX003 (ip), vehicle: other) 160 % of control; (dose: 40.0 mg/kg/injection, schedule: Q04DX003 (ip), vehicle: other) 172 % of control; (dose: 50.0 mg/kg/injection, schedule: Q04DX003 (ip), vehicle: other) 222 % of control; (dose: 80.0 mg/kg/injection, schedule: Q04DX003 (ip), vehicle: other) 201 % of control. In addition, for the setting “dose: 160.0 mg/kg/injection, schedule: Q04DX003 (ip), vehicle: other”, the T/C was 158 % of control.

Regarding `O=c1ncc2ccc([N+](=O)[O-])cc2[nH]1`, the T/C was 108 % of control and 95 % of control and 98 % of control under setting [1]; 102 % of control and 94 % of control and 98 % of control under setting [2]; 112 % of control (dose: 100.0 mg/kg/injection, schedule: Q01DX005 (ip), vehicle: Klucel (hydroxypropylcellulose) (HPC)).

For the compound `CCOC(=O)CC(C(=O)OCC)C(=O)OCC`, the T/C reads like this: (dose: 25.0 mg/kg/injection, schedule: Q01DX009 (ip), vehicle: saline) 97 % of control; under setting [3], 100 % of control; under setting [4], 103 % of control; under setting [5], 106 % of control.

As for `CCN(CC)C1CS(=O)(=O)OC2=C1CCCc1ccccc12` (configuration not stated), the T/C is, setting by setting: (dose: 25.0 mg/kg/injection, schedule: Q01DX009 (ip), vehicle: Klucel (hydroxypropylcellulose) (HPC)) 102 % of control; under setting [6], 104 % of control; under setting [7], 95 % of control.

On to `O=c1c(=NO)c(=O)c2ccccc12`, for which the T/C reads like this: under setting [8], 103 % of control; under setting [9], 110 % of control.

`CSCC1COC(=O)N1` (configuration not stated): the T/C by setting is: (dose: 100.0 mg/kg/injection, schedule: Q04DX002 (ip), vehicle: distilled water + alcohol) 100 % of control; (dose: 200.0 mg/kg/injection, schedule: Q04DX002 (ip), vehicle: distilled water + alcohol) 106 % of control; (dose: 400.0 mg/kg/injection, schedule: Q04DX002 (ip), vehicle: distilled water + alcohol) 100 % of control.

Consider `O=C1C(=O)N(c2ccccc2)N=C1N=Nc1ccccc1`, for which the T/C was 110 % of control and 115 % of control (dose: 50.0 mg/kg/injection, schedule: Q01DX005 (ip), vehicle: saline with Tween-80); 108 % of control and 114 % of control (dose: 100.0 mg/kg/injection, schedule: Q01DX005 (ip), vehicle: saline with Tween-80); 117 % of control and 120 % of control (dose: 200.0 mg/kg/injection, schedule: Q01DX005 (ip), vehicle: saline with Tween-80); 109 % of control (dose: 400.0 mg/kg/injection, schedule: Q01DX005 (ip), vehicle: saline with Tween-80).

On to `Cc1cccc(Nc2ncnc3c2c(=O)n(C)c(=O)n3C)c1`, for which the T/C runs as follows: (dose: 15.0 mg/kg/injection, schedule: Q01DX005 (ip), vehicle: saline with Tween-80) 91 % of control; (dose: 30.0 mg/kg/injection, schedule: Q01DX005 (ip), vehicle: saline with Tween-80) 94 % of control; under setting [10], 86 % of control.

On to `CCOC(=O)C(=O)C1Cc2c(C)cc3cnc(OCC)cc3c2C1=O` (configuration not stated), for which the T/C is 92 % of control (dose: 12.5 mg/kg/injection, schedule: Q01DX009 (ip), vehicle: distilled water + Tween-80); 89 % of control (dose: 25.0 mg/kg/injection, schedule: Q01DX009 (ip), vehicle: distilled water + Tween-80); 92 % of control (dose: 100.0 mg/kg/injection, schedule: Q01DX009 (ip), vehicle: distilled water + Tween-80); 92 % of control (dose: 200.0 mg/kg/injection, schedule: Q01DX009 (ip), vehicle: distilled water + Tween-80).

As to `Clc1ccc(C2=NNC(c3ccc(Cl)cc3)=NN2)cc1`, the T/C is 103 % of control under setting [11]; 102 % of control (dose: 120.0 mg/kg/injection, schedule: Q01DX005 (ip), vehicle: Klucel (hydroxypropylcellulose) (HPC)); 98 % of control under setting [12].

Turning to `COc1ccc(C2CC(=O)NC(NC#N)=N2)c(O)c1` (configuration not stated), the T/C under setting [3] was 104 % of control, the T/C under setting [4] was 102 % of control and the T/C under setting [5] was 100 % of control.

As for `CC(=O)OCC1OC(OC(C)=O)C(NC(=O)CN(Cc2ccccc2)S(C)(=O)=O)C(OC(C)=O)C1OC(C)=O` (configuration not stated), the T/C is, setting by setting: (dose: 12.5 mg/kg/injection, schedule: Q01DX009 (ip), vehicle: other) 91 % of control; (dose: 25.0 mg/kg/injection, schedule: Q01DX009 (ip), vehicle: other) 99 % of control; (dose: 50.0 mg/kg/injection, schedule: Q01DX009 (ip), vehicle: other) 96 % of control; (dose: 100.0 mg/kg/injection, schedule: Q01DX009 (ip), vehicle: other) 93 % of control; (dose: 200.0 mg/kg/injection, schedule: Q01DX009 (ip), vehicle: other) 105 % of control.

In the case of `CC(C)(C)C(=O)/C=C/c1ccc(Cl)c(Cl)c1`, the T/C reads like this: under setting [6], 104 % of control; under setting [7], 107 % of control; (dose: 200.0 mg/kg/injection, schedule: Q01DX009 (ip), vehicle: Klucel (hydroxypropylcellulose) (HPC)) 99 % of control.

On to `C/C(=N\NC(=O)c1ccccc1)c1cccc(/C(C)=N/NC(=O)c2ccccc2)n1.CC(=O)[O-].CC(=O)[O-].[Zn+2]`, for which the T/C reads like this: under setting [8], 95 % of control; under setting [9], 104 % of control; (dose: 400.0 mg/kg/injection, schedule: Q01DX001 (ip), vehicle: saline with Tween-80) 100 % of control.

On to `Cc1cc(=O)[nH]c(N/N=C/c2ccc(O)cc2)n1`, for which the T/C is 90 % of control (dose: 18.75 mg/kg/injection, schedule: Q04DX003 (ip), vehicle: saline sonified); 86 % of control (dose: 37.5 mg/kg/injection, schedule: Q04DX003 (ip), vehicle: saline sonified); 104 % of control (dose: 75.0 mg/kg/injection, schedule: Q04DX003 (ip), vehicle: saline sonified).

With `CCP(CC)(c1ccccc1)=c1c(=O)c(Cl)c(Cl)c(=O)c1=O`, the T/C (dose: 6.25 mg/kg/injection, schedule: Q01DX005 (ip), vehicle: Klucel (hydroxypropylcellulose) (HPC)) is 100 % of control; the T/C under setting [1] is 102 % of control; the T/C under setting [2] was 100 % of control.

For `CS(=O)CCN=Cc1ccc(N=Nc2ccc(O)cc2)cc1` (configuration not stated), the T/C by setting is: under setting [10], 103 % of control; under setting [13], 103 % of control; under setting [14], 97 % of control.

Turning to `Cc1ccc(N(CN2C(=O)CCC2=O)CS(=O)(=O)c2ccc(Cl)cc2)cc1`, the T/C is 107 % of control (dose: 15.0 mg/kg/injection, schedule: Q01DX005 (ip), vehicle: Klucel (hydroxypropylcellulose) (HPC)); 91 % of control (dose: 30.0 mg/kg/injection, schedule: Q01DX005 (ip), vehicle: Klucel (hydroxypropylcellulose) (HPC)); 93 % of control and 95 % of control under setting [11]; 90 % of control under setting [12].

Regarding `Cc1ccccc1NC(=O)OCCCl`, the T/C by setting is: under setting [10], 100 % of control; under setting [13], 100 % of control; under setting [14], 97 % of control.

In the case of `C/C(N)=N/OCc1ccccc1`, the T/C runs as follows: (dose: 50.0 mg/kg/injection, schedule: Q01DX005 (ip), vehicle: Klucel + Tween-80) 98 % of control; (dose: 50.0 mg/kg/injection, schedule: Q01DX005 (ip), vehicle: saline) 92 % of control; (dose: 100.0 mg/kg/injection, schedule: Q01DX005 (ip), vehicle: Klucel + Tween-80) 102 % of control; (dose: 100.0 mg/kg/injection, schedule: Q01DX005 (ip), vehicle: saline) 107 % of control; (dose: 200.0 mg/kg/injection, schedule: Q01DX005 (ip), vehicle: Klucel + Tween-80) 102 % of control; (dose: 200.0 mg/kg/injection, schedule: Q01DX005 (ip), vehicle: saline) 102 % of control.

Values taken from PubChem BioAssay AID330 (DTP/NCI, 2004).
